Data from publication PMC6273913, “New α-Methylene-γ-Butyrolactone Derivatives as Potential Fungicidal Agents: Design, Synthesis and Antifungal Activities” (Molecules, 2016).
Like-named read-outs stand apart in the source and are kept apart here.

Columns and labels:
[1] = tested on: C. lagenarium; experiment: Spore germination assay, fungicidal activity against C. lagenarium; assay type: cell-based, Colletotrichum lagenarium; conditions: Colletotrichum orbiculare
Procedure: (§1) The fungal pathogens C. lagenarium and B. cinerea was provided by the Agricultural Culture Collection of China (Yangling, Shaanxi, China). C. lagenarium was cultured for 2 weeks at 25 ± 1 °C on potato dextrose agar (PDA) while B. cinerea was cultured at 20 °C on the same medium after being retrieved from the storage tube. Plates were flooded with sterile distilled water, and then conidia were scraped with a glass rod. Mycelial debris was removed by filtration. The spores were harvested and suspended in sterile distilled water containing 0.1% (v/v) Tween 20. The concentration of the spore suspension was adjusted to 1.0 × 10^6 spores/mL with sterilized distilled water following.
(§2) The tested samples (10.0 mg) dissolved in acetone (0.1 mL) were diluted with sterile distilled water to prepare 10.0 mL stock solution, which was further diluted to prepare test solutions in which the final concentration of acetone was <1% (v/v). A series of concentrations of tested samples and one control (1% acetone with sterile distilled water) were separately tested for spore germination of C. lagenarium or B. cinerea. The samples were inoculated with spore suspension of C. lagenarium or B. cinerea containing 1.0 × 10^6 spores/mL. Aliquots of 10 μL of prepared spore suspension were placed on separate glass slides in triplicate. Slides containing the spores were incubated in a moisture chamber at 25 °C for 6~8 h. Each slide was then observed under the microscope for spore germination. Spores were considered to have germinated if the length of the germ tube was at least half the length of the spore. Afterward, spore germination was stopped by applying a drop of lactophenol-cotton blue to the inoculation sites on plates. The numbers of generated spores were counted under a microscope (Olympus BX61, Tokyo, Japan), and the percentage of germinated spores was calculated. Chlorothalonil was used as the positive control.

[2] = tested on: B. cinerea; experiment: Spore germination assay, fungicidal activity against B. cinerea; assay type: cell-based, Botrytis cinerea; conditions: Botrytis cinerea, in vitro, n = 3
Procedure: as §1, §2

[3] = tested on: HepG2 cell line; experiment: Cytotoxic activity against human tumor cells line (HepG2); assay type: cell-based
[4] = Table 1, from IC50 in μM, read-out: pIC50, C. lagenarium (converted)
[5] = Table 6, read-out: IC50 (μM) (against C. lagenarium)
[6] = in vitro, spore germination, n = 3, read-out: IC50, C. lagenarium
[7] = Table 2, fungicidal activity against C. lagenarium used for QSAR, read-out: pIC50 (converted)
[8] = Table 4, experimental, C. lagenarium, read-out: Exp. pIC50 (converted)

C=C1CC(c2ccc(O)cc2)OC1=O (centres unmarked) [Compound 4, 4-(4-Hydroxyphenyl)-2-methylenebutyrolactone]
IC50 [1, 4]: 161 µM
IC50 [1, 5]: 161 µM
IC50 [1, 6]: 161 µM
IC50 [2]: 208 µM
IC50 [3]: 23.3 µM
melting point: 79 to 81 °C

C=C1CC(c2ccc(OC(=O)c3cccc(Cl)c3)cc2)OC1=O (centres unmarked) [Compound 4b, 4-[4-(3-Chlorobenzoyloxy)phenyl]-2-methylenebutyrolactone]
IC50 [1, 4]: 8.99 µM
IC50 [1, 7]: 8.99 µM
IC50 [1, 8]: 8.99 µM
IC50 [1, 5]: 8.99 µM
IC50 [1, 6]: 8.99 µM
IC50 [2]: 22.1 µM
IC50 [3]: 22.4 µM
melting point: 168.8 to 169.2 °C

C=C1CC(c2ccc(OC(=O)c3cccc(Br)c3)cc2)OC1=O (centres unmarked) [Compound 4e, 4-[4-(3-Bromobenzoyloxy)phenyl]-2-methylenebutyrolactone]
IC50 [1, 4]: 8.77 µM
IC50 [1, 7]: 8.77 µM
IC50 [1, 8]: 8.77 µM
IC50 [1, 5]: 8.76 µM
IC50 [1, 6]: 8.76 µM
IC50 [2]: 30.2 µM
IC50 [3]: 21.7 µM
melting point: 176.5 to 176.8 °C

C=C1CC(c2ccc(OC(=O)c3ccccc3)cc2)OC1=O (centres unmarked) [Compound 4i, 4-(4-Benzoyloxyphenyl)-2-methylenebutyrolactone]
IC50 [1, 4]: 95.3 µM
IC50 [1, 7]: 95.3 µM
IC50 [1, 8]: 95.3 µM
IC50 [1, 5]: 95.4 µM
IC50 [1, 6]: 95.4 µM
IC50 [2]: 112 µM
IC50 [3]: 5.3 µM
melting point: 223.3 to 223.7 °C

C=C1CC(c2ccc(OC(=O)c3cccc(C)c3)cc2)OC1=O (centres unmarked) [Compound 4k, 4-[4-(3-Methylbenzoyloxy)phenyl]-2-methylenebutyrolactone]
IC50 [1, 4]: 178 µM
IC50 [1, 7]: 178 µM
IC50 [1, 8]: 178 µM
IC50 [1, 5]: 178 µM
IC50 [1, 6]: 178 µM
IC50 [2]: 193 µM
IC50 [3]: 28.5 µM
melting point: 186.2 to 186.6 °C

C=C1CC(c2ccc(OC(=O)c3ccc(OC)cc3)cc2)OC1=O (centres unmarked) [Compound 4o, 4-[4-(4-Methoxylbenzoyloxy)phenyl]-2-methylenebutyrolactone]
IC50 [1, 4]: 219 µM
IC50 [1, 7]: 219 µM
IC50 [1, 8]: 219 µM
IC50 [1, 5]: 219 µM
IC50 [1, 6]: 219 µM
IC50 [2]: 231 µM
IC50 [3]: 25 µM
melting point: 184.5 to 185.2 °C

C=C1CC(c2ccc(OC(=O)CC)cc2)OC1=O (centres unmarked) [Compound 4p, 4-[4-(Propionyloxy)phenyl]-2-methylenebutyrolactone]
IC50 [1, 4]: 207 µM
IC50 [1, 7]: 207 µM
IC50 [1, 8]: 207 µM
IC50 [1, 5]: 207 µM
IC50 [1, 6]: 207 µM
IC50 [2]: 237 µM
IC50 [3]: 19.5 µM

C=C1CC(c2ccc(OC(=O)C=Cc3ccc(O)c(OC)c3)cc2)OC1=O (centres unmarked) [Compound 4q]
IC50 [1, 4]: 8.93 µM
IC50 [1, 8]: 8.93 µM
IC50 [1, 5]: 8.93 µM
IC50 [1, 6]: 8.93 µM
IC50 [2]: 21.5 µM
IC50 [3]: 27.3 µM

C=C1CC(c2ccccc2OC(=O)c2cccc(Cl)c2)OC1=O (centres unmarked) [Compound 5a, 4-[2-(3-Chlorobenzoyloxy)phenyl]-2-methylenebutyrolactone]
IC50 [1, 4]: 16.8 µM
IC50 [1, 7]: 16.8 µM
IC50 [1, 8]: 16.8 µM
IC50 [1, 5]: 16.8 µM
IC50 [1, 6]: 16.8 µM
IC50 [2]: 30.6 µM
IC50 [3]: 28.4 µM
melting point: 201.3 to 201.8 °C

C=C1CC(c2ccccc2OC(=O)c2cccc(Br)c2)OC1=O (centres unmarked) [Compound 5d, 4-[2-(3-Bromobenzoyloxy)phenyl]-2-methylenebutyrolactone]
IC50 [1, 4]: 13.4 µM
IC50 [1, 7]: 13.4 µM
IC50 [1, 8]: 13.4 µM
IC50 [1, 5]: 13.4 µM
IC50 [1, 6]: 13.4 µM
IC50 [2]: 22.9 µM
IC50 [3]: 35.6 µM
melting point: 189.7 to 190.4 °C

C=C1CC(c2ccccc2OC(=O)c2cccc(C)c2)OC1=O (centres unmarked) [Compound 5i, 4-[2-(3-Methylbenzoyloxy)phenyl]-2-methylenebutyrolactone]
IC50 [1, 4]: 182 µM
IC50 [1, 7]: 182 µM
IC50 [1, 8]: 182 µM
IC50 [1, 5]: 182 µM
IC50 [1, 6]: 182 µM
IC50 [2]: 194 µM
IC50 [3]: 85.2 µM
melting point: 179.3 to 179.9 °C

C=C1CC(c2ccccc2OC(=O)c2cccc(OC)c2)OC1=O (centres unmarked) [Compound 5l, 4-[2-(3-Methoxylbenzoyloxy)phenyl]-2-methylenebutyrolactone]
IC50 [1, 4]: 284 µM
IC50 [1, 7]: 284 µM
IC50 [1, 8]: 284 µM
IC50 [1, 5]: 284 µM
IC50 [1, 6]: 284 µM
IC50 [2]: 303 µM
IC50 [3]: 29 µM
melting point: 180.3 to 180.8 °C

C=C1CC(c2ccccc2OC(=O)CCC)OC1=O (centres unmarked) [Compound 5m, 4-[2-(Butyryloxy)phenyl]-2-methylenebutyrolactone]
IC50 [1, 4]: 174 µM
IC50 [1, 7]: 174 µM
IC50 [1, 8]: 174 µM
IC50 [1, 5]: 174 µM
IC50 [1, 6]: 174 µM
IC50 [2]: 206 µM
IC50 [3]: 23.8 µM

C=C1CC(c2ccccc2OCCC)OC1=O (centres unmarked) [Compound 5p, 4-(2-Propoxylphenyl)-2-methylenebutyrolactone]
IC50 [1, 4]: 499 µM
IC50 [1, 7]: 499 µM
IC50 [1, 8]: 499 µM
IC50 [1, 5]: 499 µM
IC50 [1, 6]: 499 µM
IC50 [2]: 525 µM
IC50 [3]: > 132 µM

C=C1CC(c2ccccc2OCC)OC1=O (centres unmarked) [Compound 5r, 4-(2-Ethoxyphenyl)-2-methylenebutyrolactone]
IC50 [1, 4]: 520 µM
IC50 [1, 7]: 520 µM
IC50 [1, 8]: 520 µM
IC50 [1, 5]: 519 µM
IC50 [1, 6]: 519 µM
IC50 [2]: 549 µM
IC50 [3]: 38.4 µM

C=C1CC(c2cccc(O)c2)OC1=O (centres unmarked) [Compound 6, 4-(3-Hydroxyphenyl)-2-methylenebutyrolactone]
IC50 [1, 4]: 117 µM
IC50 [1, 5]: 117 µM
IC50 [1, 6]: 117 µM
IC50 [2]: 140 µM
IC50 [3]: 17.9 µM
melting point: 78 to 79 °C

C=C1CC(c2cccc(OC(=O)c3cccc(Cl)c3)c2)OC1=O (centres unmarked) [Compound 6a, 4-[3-(3-Chlorobenzoyloxy)phenyl]-2-methylenebutyrolactone]
IC50 [1, 4]: 7.67 µM
IC50 [1, 7]: 7.67 µM
IC50 [1, 8]: 7.67 µM
IC50 [1, 5]: 7.68 µM
IC50 [1, 6]: 7.68 µM
IC50 [2]: 23.3 µM
IC50 [3]: 30.2 µM
melting point: 205.7 to 206.4 °C

C=C1CC(c2cccc(OC(=O)C=Cc3ccccc3)c2)OC1=O (centres unmarked) [Compound 6n, 4-(3-Cinnamoyloxyphenyl)-2-methylenebutyrolactone]
IC50 [1, 4]: 24.3 µM
IC50 [1, 7]: 24.3 µM
IC50 [1, 8]: 24.3 µM
IC50 [1, 5]: 24.2 µM
IC50 [1, 6]: 24.2 µM
IC50 [2]: 40.3 µM
IC50 [3]: 15.7 µM

C=C1CC(c2cccc(OCCCC)c2)OC1=O (centres unmarked) [Compound 6o, 4-(3-Butoxyphenyl)-2-methylenebutyrolactone]
IC50 [1, 4]: 242 µM
IC50 [1, 7]: 242 µM
IC50 [1, 8]: 242 µM
IC50 [1, 5]: 242 µM
IC50 [1, 6]: 242 µM
IC50 [2]: 280 µM
IC50 [3]: > 108 µM
